From patent US20220023227A1, “SYSTEMS AND METHODS FOR FORMING NANOCAPSULES BY PULSED ELECTROSPRAYING” (priority 2020, published 2022)
Entries after “also recorded” stand apart in the source; their conditions may differ.

Tests used:
4T1 tumor cells [1] = test: Metastatic outgrowth of disseminated 4T1 tumor cells, mice euthanized 72h after last injection; type: in vivo
Excerpt: Mice were sacrificed 3 days after the last dose injection to check the metastatic colonization of luciferase expressing 4T1 tumor cells. […] Results are presented as mean±SD (3 mice in each group).
(§1) Murine 4T1 cells were originally isolated from a spontaneous mammary tumor in the BALB/c strain and have been reported to show characteristics of human triple-negative breast cancer (TNBC) subtype. We first implanted 50,000 4T1 tumor cells into mammary fat pad of syngeneic mice and started treatment one-week post-implantation. After 3 doses by injection (one dose/week), the treatment was terminated and mice were followed for tumor growth and survival. […] Second set of mice euthanized to examine metastatic colonization of tumor cells in the lungs 72h after the last injection.

4T1 tumor cells [2] = test: 4T1 mammary fat pad tumor growth and survival after 3 weekly doses; type: in vivo, BALB/c mice
Protocol: Highly aggressive 4T1 tumor cells were implanted into 4th mammary fat pad of BALB/c mice and treatment was started one week post-implantation and total 3 doses (one dose/week) were injected. […] Results are presented as mean±SD (3-5 mice in each group).
as §1

SMILES: CC(=O)O[C@H]1C(=O)[C@@]2(C)[C@H]([C@H](OC(=O)c3ccccc3)[C@]3(O)C[C@H](OC(=O)[C@H](O)[C@@H](NC(=O)c4ccccc4)c4ccccc4)C(C)=C1C3(C)C)[C@]1(OC(C)=O)CO[C@@H]1C[C@@H]2O [naked paclitaxel, paclitaxel]
- metastatic colonization of tumor cells in the lungs (ex vivo lung imaging) (4T1 tumor cells [1]; 72h after the last injection, 3 mice in each group, FIG. 2d-e): micro metastatic colonization; also recorded: only micro metastases
- tumor weight (4T1 tumor cells [1]; IP-injection, 72h after the last injection, FIG. 2a-b): decreased the tumor weight but this decrease was not significant; also recorded: decrease the tumor weight
- signal intensity of luciferase in lungs, difference between groups (4T1 tumor cells [1]; ex vivo lung imaging, FIG. 2d-e): not significantly different
- survival compared with tumor bearing mice that did not have any treatment (4T1 tumor cells [2]; 3 doses, one dose/week): longer
- tumor size, difference between groups (4T1 tumor cells [2]; up to 42 days, FIG. 1b): no significant difference
